Results on 24 compounds are retold here after patent publication US8835428B2, “Diacylglycerol acyltransferase inhibitors” (Piramal Enterprises Limited, priority 2008, dated 2014).

For this assay, the target named is T1, hDGAT1 (Homo sapiens, UniProt O75907).
T1 construct: host or cells: Sf9 insect cells (baculovirus); microsomal preparation
T1 sequence (O75907 1-488): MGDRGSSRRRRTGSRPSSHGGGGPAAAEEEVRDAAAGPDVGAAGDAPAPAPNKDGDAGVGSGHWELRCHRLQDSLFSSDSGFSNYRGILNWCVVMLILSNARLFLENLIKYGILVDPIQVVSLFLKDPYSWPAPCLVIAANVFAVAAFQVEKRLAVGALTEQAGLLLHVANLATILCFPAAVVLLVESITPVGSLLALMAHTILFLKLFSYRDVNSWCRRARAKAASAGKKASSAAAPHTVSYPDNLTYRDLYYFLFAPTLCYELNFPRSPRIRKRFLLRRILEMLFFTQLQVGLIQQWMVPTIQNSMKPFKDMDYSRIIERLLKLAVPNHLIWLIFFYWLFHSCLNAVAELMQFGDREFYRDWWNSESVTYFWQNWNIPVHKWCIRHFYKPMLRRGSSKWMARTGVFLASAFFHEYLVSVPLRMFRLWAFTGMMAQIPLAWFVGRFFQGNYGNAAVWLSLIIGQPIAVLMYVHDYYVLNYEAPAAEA
Put plainly: In-vitro DGAT1 assay (hDGAT1 microsomes from Sf9 cells, 14C oleoyl CoA, triglyceride formation). The class given is biochemical. As to conditions: for inhibition at 10 µM / % inhibition of hDGAT1: At 10 μM. In short, it runs like this: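 Human DGAT1 in baculovirus-infected Sf9 microsomes (2.5–10 μg), [14C]oleoyl-CoA with 409.5, 1228.5 or 1638 μM 1,2-dioleoyl-sn-glycerol, Tris-HCl pH 7.4 buffer with BSA. Compounds screened at 10, 5 and 1 μM in duplicate. Reaction 10 min at 37 °C; heptane-extracted [14C]triglyceride counted by scintillation.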

What is called inhibition is the share of the control response that was lost under treatment. Compound `CC(C)[C@H](NC(=O)c1cc(-c2ccc(NC(=O)Nc3cc(F)ccc3F)cc2)no1)C(=O)O` [Example 199, (S)-2-(3-(4-(3-(2,5-Difluorophenyl)ureido)phenyl)isoxazole-5-carboxamido)-3-methylbutanoic acid] gave an inhibition at 1 µM of 75 to 100%.

As to `Cc1ccc(F)cc1NC(=O)Nc1ccc(-c2cc(C(=O)NC(C(=O)O)C(C)C)on2)cc1` (stereo not drawn) [Example 252, 2-(3-(4-(3-(5-Fluoro-2-methylphenyl)ureido)phenyl)isoxazole-5-carboxamido)-3-methylbutanoic acid], the inhibition at 1 µM lay in the range of 75 to 100%.

As to `COC[C@H](NC(=S)c1cc(-c2cccc(Nc3nc4ccc(F)cc4s3)c2)no1)C(=O)O` [Example 31, (S)-2-({3-[3-(6-Fluoro-benzothiazol-2-ylamino)-phenyl]-isoxazole-5-carbothioyl}-amino)-3-methoxy-propionic acid], the inhibition at 10 µM was 0 to 50%.

`COC[C@H](NC(=S)c1cc(-c2ccc(Nc3nc4ccc(F)cc4s3)cc2)no1)C(=O)O` [Example 15, (S)-2-({3-[4-(6-Fluoro-benzothiazol-2-ylamino)-phenyl]-isoxazole-5-carbothioyl}-amino)-3-methoxy-propionic acid] returned an inhibition at 10 µM of 50 to 75%.

As for `COC(=O)[C@@H](NC(=O)c1cc(-c2ccc(NC(=O)Nc3ccc(F)cc3)c(F)c2)no1)C(C)C` [Example 96], the “% inhibition of hDGAT1” value is “++ (>50% Inhibition ≦75)”.

Take `Cc1ccc(NC(=O)Nc2ccc(-c3cc(C(=O)N[C@H](C(=O)O)C(C)C)on3)cc2)cc1C` [Example 173, (S)-2-(3-(4-(3-(3,4-dimethylphenyl)ureido)phenyl)isoxazole-5-carboxamido)-3-methylbutanoic acid]: the inhibition at 1 µM was 75 to 100%.

`CC(C)[C@H](NC(=O)c1cc(-c2ccc(NC(=O)NC3CCCCC3)cc2)no1)C(=O)O` [Example 81, (S)-2-({3-[4-(3-cyclohexyl-ureido)-phenyl]-isoxazole-5-carbonyl}-amino)-3-methyl-butyric acid]: the inhibition at 10 µM was in the range of 75 to 100%.

Turning to `COC(=O)[C@H](CC(C)C)NC(=NO)c1cc(-c2ccc(Nc3nc4ccc(F)cc4s3)cc2)no1` [Example 50, (S)-2-({3-[4-(6-Fluoro-benzothiazol-2-ylamino)-phenyl]-N-hydroxy-isoxazole-5-carboximidoyl}-amino)-4-methyl-pentanoic acid methyl ester], the inhibition at 10 µM lay in the range of 0 to 50%.

Compound `COC(=O)[C@H](Cc1ccc(O)cc1)NC(=O)c1cc(-c2ccc(NC(=O)Nc3ccccc3F)cc2)no1` [Example 274, (S)-Methyl 2-(3-(4-(3-(2-fluorophenyl)ureido)phenyl)isoxazole-5-carboxamido)-3-(4-hydroxyphenyl)propanoate] gave an inhibition at 5 µM of 0 to 50%.

Compound `CC(C)C[C@H](NC(=O)c1cc(-c2ccc(NC(=O)Nc3ccc(F)cc3)cc2)no1)C(=O)O` [Example 87, (S)-2-[(3-{4-[3-(4-Fluoro-phenyl)-ureido]-phenyl}-isoxazole-5-carbonyl)-amino]-4-methyl-pentanoic acid] had an inhibition at 10 µM of 75 to 100%.

For `CC(C)C(NC(=O)c1cc(-c2ccc(NC(=O)Nc3ccccn3)cc2)no1)C(=O)O` (stereo not drawn) [Example 280, 3-methyl-2-(3-(4-(3-pyridin-2-ylureido)phenyl)isoxazole-5-carboxamido)butanoic acid], the inhibition at 5 µM lay in the range of 50 to 75%.

In the case of `CC(C)(NC(=O)c1cc(-c2ccc(NC(=O)Nc3ccccc3)cc2)no1)C(=O)O` [Example 122, 2-methyl-2-(3-(4-(3-phenylureido)phenyl)isoxazole-5-carboxamido) propanoic acid], the inhibition at 10 µM is 75 to 100%.

For `Cc1cc(-c2cc(C(=O)NC(C(=O)O)C(C)C)on2)ccc1NC(=O)Nc1ccc(F)cc1F` (stereo not drawn) [Example 103, 2-(3-(4-(3-(2,4-Difluorophenyl)ureido)-3-methylphenyl)isoxazole-5-carboxamido)-3-methylbutanoic acid], the inhibition at 10 µM was in the range of 75 to 100%.

Regarding `COC(=O)[C@@H]1CCCN1C(=O)c1cc(-c2ccc(NC(=O)Nc3ccccc3F)cc2)no1` [Example 261, (S)-Methyl 1-(3-(4-(3-(2-fluorophenyl)ureido)phenyl)isoxazole-5-carbonyl)pyrrolidine-2-carboxylate], the inhibition at 1 µM fell in the range of 50 to 75%.

`CC(C)[C@H](NC(=S)c1cc(-c2ccc(Nc3nc4ccc(F)cc4s3)cc2)no1)C(=O)O` [Example 45, (S)-2-({3-[4-(6-Fluoro-benzothiazol-2-ylamino)-phenyl]-isoxazole-5-carbothioyl}-amino)-3-methyl-butyric acid] returned an inhibition at 10 µM of 50 to 75%.

Turning to `O=C(O)C1(NC(=S)c2cc(-c3ccc(Nc4nc5ccc(F)cc5s4)cc3)no2)CCCC1` [Example 65, 1-({3-[4-(6-Fluoro-benzothiazol-2-ylamino)-phenyl]-isoxazole-5-carbothioyl}-amino)-cyclopentanecarboxylic acid], the inhibition at 10 µM lay within 0 to 50%.

Compound `Cc1ccc(NC(=O)Nc2ccc(-c3cc(C(=O)NC(C(=O)O)C(C)C)on3)cc2)cc1Cl` (stereo not drawn) [Example 248, 2-(3-(4-(3-(3-Chloro-4-methylphenyl)ureido)phenyl)isoxazole-5-carboxamido)-3-methylbutanoic acid] had an inhibition at 1 µM of 75 to 100%.

For the compound “7-{3-[4-(6-Fluoro-benzothiazol-2-ylamino)-phenyl]-isoxazole-5-yl}-9-oxa-6,8-diaza-spiro[4,5]dec-7-en-10-one [Example 67]”, the “% inhibition of hDGAT1” value is listed as “+++ (>75% Inhibition ≦100)”.

The compound `CC(C)[C@H](NC(=O)c1cc(-c2ccc(NC(=O)Nc3ccc(F)cc3C(F)(F)F)cc2)no1)C(=O)O` [Example 213, (S)-2-(3-(4-(3-(4-fluoro-2-(trifluoromethyl)phenyl)ureido)phenyl)isoxazole-5-carboxamido)-3-methylbutanoic acid] returned an inhibition at 1 µM of 50 to 75%.

In turn, `COC(=O)C(NC(=O)c1cc(-c2ccc(NC(=O)Nc3ccc(C)cc3)cc2)no1)C(C)C` (stereo not drawn) [Example 125, Methyl 3-methyl-2-(3-(4-(3-p-tolylureido)phenyl)isoxazole-5-carboxamido)butanoate] gave an inhibition at 10 µM of 50 to 75%.

Take `NC(=O)c1cc(-c2ccc(Nc3nc4ccc(F)cc4s3)cc2)no1` [Example 3, 3-[4-(6-Fluoro-benzothiazol-2-ylamino)-phenyl]-isoxazole-5-carboxylic acid amide]: the inhibition at 10 µM is 0 to 50%.

The compound `O=C(O)CNC(=O)c1cc(-c2ccc(Nc3nc4ccc(F)cc4s3)cc2)no1` [Example 59, ({3-[4-(6-Fluoro-benzothiazol-2-ylamino)-phenyl]-isoxazole-5-carbonyl}-amino)-acetic acid] returned an inhibition at 10 µM of 0 to 50%.

As for `CC(C)[C@@H](NC(=O)c1cc(-c2ccc(NC(=O)Nc3ccc(C#N)cc3)cc2)no1)C(=O)O` [Example 219, (R)-2-(3-(4-(3-(4-Cyanophenyl)ureido)phenyl)isoxazole-5-carboxamido)-3-methylbutanoic acid], the inhibition at 1 µM was 50 to 75%.

With `CC(C)C[C@H](NC(=S)c1cc(-c2ccc(Nc3nc4ccc(F)cc4s3)cc2)no1)C(=O)O` [Example 49, (S)-2-({3-[4-(6-Fluoro-benzothiazol-2-ylamino)-phenyl]-isoxazole-5-carbothioyl}-amino)-4-methyl-pentanoic acid], the inhibition at 10 µM fell in the range of 50 to 75%.
